Results: patent US9114158B2, “Compounds and methods of use in ablative radiotherapy” (The Johns Hopkins University, priority 2011, dated 2015)

Columns and labels:
DDX3 = target: T1, DDX3 (Homo sapiens, UniProt O00571); assay: DDX3 helicase unwinding assay with duplex oligos; type: biochemical; settings: 100 μM RK-33, over a period of 80 minutes
T1 construct: made in house; host or cells: pET system (Novagen); E. coli is my own knowledge of the pET system
Excerpt: FIG. 4 is a chart showing RK-33 inhibits helicase activity of DDX3.
Generating small molecular inhibitors of DDX3 function. As loss of DDX3 function abrogated colony forming abilities along with increased expression in lung carcinoma samples, a search was initiated to identify molecules that could target a functional substrate binding site of DDX3 protein. Initial work generated a fused diimidazodiazepine ring molecule (RK-33) to target RNA helicase. To confirm the functional activity of RK-33 on DDX3, an in vitro assay was carried out to determine the effects of RK-33 on helicase activity. DDX3 protein was synthesized using the pET system from Novagen. Following DDX3 purification, the unwinding assays were performed using duplex oligos, purified DDX3 and RK-33. Quantification was done by evaluating the pixel density of the native duplex oligos and the unwound oligos.

A549 = assay: MTS assay, lung cancer cell line A549; type: cell-based
Method: FIG. 5 is a plot showing the effect of RK-33 on two lung cancer cell lines. Lung cancer cell lines were incubated with different concentrations of RK-33. At day 3, MTS assays were performed to determine the percentage of metabolically active cells. The experiments were repeated in triplicate. The IC50 values for H23 and A549 are 3.5 and 5 μM respectively. […] Experiments were performed in triplicate. To study the effects of RK-33 on cell growth and proliferation, lung cancer cell lines (H23 and A549) were used for the initial studies. […] To the best of our knowledge, this is the first data set of evaluating the efficacy of a small molecule inhibitor of DDX3 to kill lung cancer cells.

[1] = tested on: Cells engineered to express a hypoxia induced red fluorescent protein (tdTomato); assay: Cell death under hypoxic conditions (CoCl2 hypoxia mimetic); type: cell-based; settings: CoCl2 24 hours, then RK-33 72 hours
Method: Cells engineered to express a hypoxia induced red fluorescent protein (tdTomato) were incubated with CoCl2 (hypoxia mimetic compound) for 24 hours, following which RK-33 was added and incubated for 72 hours. Photomicrographs were taken at 20×. Experiments were repeated twice. Effect of hypoxia on the functional activity of RK-33 to induce cell death. During solid tumor biogenesis, regions of hypoxia develop within the tumor due to inadequate and poorly formed vasculature. […] In addition, some have posited that tumor hypoxia is a major limiting factor of the curability by SABR at lower radiation dose. […] To evaluate efficacy of RK-33 to induce cell death under hypoxic conditions, cells were incubated with CoCl2 (hypoxia mimetic compound) for 24 hours, following which RK-33 was added and incubated for 72 hours.

H23 = assay: MTS assay, lung cancer cell line H23; type: cell-based
Method: FIG. 5 is a plot showing the effect of RK-33 on two lung cancer cell lines. Lung cancer cell lines were incubated with different concentrations of RK-33. At day 3, MTS assays were performed to determine the percentage of metabolically active cells. The experiments were repeated in triplicate. The IC50 values for H23 and A549 are 3.5 and 5 μM respectively.
To study the effects of RK-33 on cell growth and proliferation, lung cancer cell lines (H23 and A549) were used for the initial studies. […] To the best of our knowledge, this is the first data set of evaluating the efficacy of a small molecule inhibitor of DDX3 to kill lung cancer cells.

[2] = Biodistribution of RK-33 in mice by LC/MS/MS; type: in vivo; settings: I.P. single dose of 20 mg/kg; 30 minutes, 60 minutes and 24 hours
Excerpt: FIG. 9 is a set of curves illustrating the biodistribution of RK-33 in mice at different time intervals using an LC/MS/MS method. A total of five mice per time point were used for this study.
Analysis of the toxicity of RK-33 in SCID mice. […] Subsequently, we carried out pharmacokinetics in multiple tissue compartments. For this a LC/MS/MS method was developed for determination of RK-33 in mouse plasma (FIG. 9-inset). Sample preparation involved acetonitrile precipitation and separation of RK-33 and the internal standard, temazepam, was achieved on a Waters Xterra column. […] The animals were injected I.P. (single dose of 20 mg/kg with five animals per arm) and the tissue harvested at different time intervals (30 minutes, 60 minutes and 24 hours) and analyzed.

lung tumors in CRT mice = assay: RK-33 and radiation in CRT autochthonous lung tumor mice, microCT tumor volume; type: in vivo
Excerpt: FIG. 11 is a bar graph showing the chemosensitization of RK-33 with radiation to reduce lung tumors in CRT mice. Following RK-33 and radiation treatment, the animals were imaged using microCT (data not shown). The bar graph depicts the reduction of lung tumor volume in n=8 animals per group. The tumor volumes were quantified from the CBCT data set using the image and volume contouring utility of the Pinnacle3 Radiation Therapy Planning software v.8.1y (Philips Inc., Madison, Wis.) used in the clinic for human patients. Each CBCT data set contains full 3D volumetric data for the tumor burden estimation.
Generating the CRT mice and drug treatment. As shown in the results, the functional utility of CRT mice was validated. CRT mice are generated from combinations of bi-transgenic mice; e.g., CT X CR. CRT mice were activated shortly after weaning, four-five weeks old, by doxycycline administered in their drinking water (up to 2 mg/ml) in a total volume of 350 ml to simultaneously activate both Twist1 and KrasG12D transgenes. Fresh doxycycline containing water was administered weekly. Ten weeks post transgene induction, the mice were imaged by microCT to determine tumor load. Induction of the transgenes and imaging the tumor load by microCT were continuous (weekly) till the end of the experiment. Following induction and establishment of lung tumors, RK-33 (1 mM equivalent to 40 mg/Kg) was injected intraperitoneally in combination with radiation at schedules described in the table below. The number of animals used in each group was 25.
MicroCT procedures. Presently a small animal radiation research platform for radiation treatment of animals was developed. […]
Thoracic image-guided irradiation. […] Fifteen Gy radiation calculated at the isocenter was delivered using a single posterior field. […]
Endpoints for in vivo experiments. […] Animals following treatment are monitored daily by animal care staff and 3×/week by investigators for signs of mortality and morbidity. […]

[3] = Toxicity of RK-33 in SCID mice, pathological examination after necropsy; type: in vivo
A549 cells = assay: Combination of RK-33 and radiation in A549 cells, Chou-Talalay analysis; type: cell-based; settings: 4 and 6 μM RK-33 with 2 and 7 gray of radiation
Method: FIG. 8 is a set of bar graphs depicting the effect of radiation and RK-33 on A549 cells. […] Experiments were performed in triplicate.
Clonogenic assays. About 1×10^5 A549 cells were treated with RK-33 (1-6 μM) and to increasing dose of IR (1-20 Gy). After 24 hours, 500 cells from each combination treatment will be plated into a 6-well plate. Following incubation for 1-3 weeks, colonies were fixed in glutaraldehyde (6.0% v/v), stained with crystal violet (0.5% w/v) and counted using a stereomicroscope. Clusters of >50 cells (i.e., six cell doubling times) were scored as colonies. The amount of radiosensitization by RK-33 was determined using the Chou-Talalay equation to determine the combination index (CI). A CI 0.9-1.1 was indicative of additivity while a CI <0.9 indicated synergism. The survival curves, S, were fit to the linear-quadratic model S=exp(−αD-βD2) to determine classical parameters of radiation sensitivity.
Combinatorial effect of RK-33 and radiation in lung cancer cell line, A549. Given the current treatment protocol for lung cancer patients, which includes chemotherapy and radiation, the cell killing abilities of RK-33 was evaluated in combination with radiation in a chemotherapy/radiation resistant lung cancer cell line, A549 (FIG. 7). […] For this experiment, RK-33 below the IC50 value was used to determine if there was any additive or synergistic effect. […]

T1 sequence (O00571 whole entry): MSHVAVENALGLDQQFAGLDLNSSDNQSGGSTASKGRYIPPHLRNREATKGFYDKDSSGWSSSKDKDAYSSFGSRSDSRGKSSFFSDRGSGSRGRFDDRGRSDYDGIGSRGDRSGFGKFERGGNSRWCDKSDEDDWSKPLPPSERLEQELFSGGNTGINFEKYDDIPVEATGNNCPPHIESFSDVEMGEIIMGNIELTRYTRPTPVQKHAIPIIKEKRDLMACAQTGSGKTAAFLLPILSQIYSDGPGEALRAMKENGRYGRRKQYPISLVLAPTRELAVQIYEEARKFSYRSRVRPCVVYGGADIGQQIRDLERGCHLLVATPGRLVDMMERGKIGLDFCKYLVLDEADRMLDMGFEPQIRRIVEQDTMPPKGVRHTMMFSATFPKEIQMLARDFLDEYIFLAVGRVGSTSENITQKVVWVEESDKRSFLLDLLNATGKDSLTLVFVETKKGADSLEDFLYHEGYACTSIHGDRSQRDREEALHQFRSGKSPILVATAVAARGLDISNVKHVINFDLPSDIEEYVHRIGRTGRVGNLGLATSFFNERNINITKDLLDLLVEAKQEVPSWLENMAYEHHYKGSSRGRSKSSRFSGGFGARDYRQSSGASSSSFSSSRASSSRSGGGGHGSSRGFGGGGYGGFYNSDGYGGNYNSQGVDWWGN

| reduction of unwinding of the duplex oligos (DDX3) | IC50 (A549; Homo sapiens, 72 h, A549, MTS at day 3) [µM] | IC50 (H23; Homo sapiens, NCI-H23, 72 h, H23, MTS at day 3) [µM] | brain exposures [2] | SMILES | sensitivity of A549 cells in MTS assay (A549) | effect on cell growth and proliferation (A549; A549, 8 μM RK-33) | activity to induce cell death under hypoxic conditions [1] | effect on cell growth and proliferation (H23; H23, 8 μM RK-33) | target tissue concentrations [2] | tumor volume reduction, RK-33 combined with conventional fractionated radiation (lung tumors in CRT mice; 3 Gy x10) | tumor response, single agent (lung tumors in CRT mice; RK-33 1 mM i.p. 3 times a week alone, microCT) | tumor response, RK-33 combined with SABR (lung tumors in CRT mice; RK-33 1 mM i.p. 3 times a week, 1 week before and 1 week after 15 Gy whole thorax SABR, microCT and H&E) | pathological examination of all tissues following necropsy [3] | combination effect with radiation on cell death (Chou-Talalay) (A549 cells) |
| --- | --- | --- | --- | --- | --- | --- | --- | --- | --- | --- | --- | --- | --- | --- |
| at least 60% | 5 | 3.5 | well managed | COc1ccc(Cn2c3ncnc4c(ncn4Cc4ccc(OC)cc4)c-3nc2=O)cc1 [RK-33] | sensitive | efficiently ablate | retain its activity both under normoxic and hypoxic conditions | efficiently ablate | well above effective killing concentrations | no synergy | stasis or perhaps slight regression | dramatic tumor regression | no tissue damage | significant synergistic effect |
|  |  |  |  | N.N.O=C([O-])C1(C(=O)[O-])CCC1.[Pt+2] [carboplatin, reference compound] | resistant |  |  |  |  |  |  |  |  |  |
